#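 Following 48 hours of exposure in 96-well plates, responses at five concentrations were used to interpolate endpoints linearly. At the GI50, growth is halved. At the TGI there is no net growth.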
# How the values were obtained:
# Assay in all cases: growth of human tumour cells (NCI), 48 h
# CAKI-1 renal = system: CAKI-1 renal
# DU-145 prostate = system: DU-145 prostate
# HL-60(TB) leukemia = system: HL-60(TB) leukemia
# HS 578T breast = system: HS 578T breast
# KM12 colon = system: KM12 colon
# MDA-MB-435 = system: MDA-MB-435
# OVCAR-3 ovarian = system: OVCAR-3 ovarian
# RPMI-8226 leukemia = system: RPMI-8226 leukemia
# SK-OV-3 ovarian = system: SK-OV-3 ovarian
# TK-10 renal = system: TK-10 renal
# A498 renal = system: A498 renal
# A549 NSCLC = system: A549 NSCLC
# ACHN renal = system: ACHN renal
# CCRF-CEM leukemia = system: CCRF-CEM leukemia
# COLO 205 colon = system: COLO 205 colon
# HCC-2998 colon = system: HCC-2998 colon
# HCT-116 colon = system: HCT-116 colon
# HOP-92 NSCLC = system: HOP-92 NSCLC
# HT29 colon = system: HT29 colon
# IGROV1 ovarian = system: IGROV1 ovarian
# K-562 leukemia = system: K-562 leukemia
# MDA-MB-231 breast = system: MDA-MB-231 breast
# NCI-H460 lung = system: NCI-H460 lung
# OVCAR-5 ovarian = system: OVCAR-5 ovarian
# PC-3 prostate = system: PC-3 prostate
# SF-268 CNS = system: SF-268 CNS
# SF-539 CNS = system: SF-539 CNS
# SK-MEL-28 melanoma = system: SK-MEL-28 melanoma
# SN12C renal = system: SN12C renal
# SNB-75 CNS = system: SNB-75 CNS
# SR leukemia = system: SR leukemia
# SW-620 colon = system: SW-620 colon
# UACC-62 melanoma = system: UACC-62 melanoma
# UO-31 renal = system: UO-31 renal
smiles,measurement,setting,value
N=C(N)c1ccc(-c2ccc(-c3cc(Cl)cc(Cl)c3)o2)o1,GI50,CAKI-1 renal,1700 nM
same,TGI,CAKI-1 renal,3110 nM
same,GI50,DU-145 prostate,1780 nM
same,TGI,DU-145 prostate,3240 nM
same,GI50,HL-60(TB) leukemia,1620 nM
same,TGI,HL-60(TB) leukemia,3490 nM
same,GI50,HS 578T breast,2220 nM
same,TGI,HS 578T breast,5020 nM
same,GI50,KM12 colon,1650 nM
same,TGI,KM12 colon,3180 nM
same,GI50,MDA-MB-435,1610 nM
same,TGI,MDA-MB-435,2990 nM
same,GI50,OVCAR-3 ovarian,1700 nM
same,TGI,OVCAR-3 ovarian,3140 nM
same,GI50,RPMI-8226 leukemia,2130 nM
same,TGI,RPMI-8226 leukemia,4630 nM
same,GI50,SK-OV-3 ovarian,1800 nM
same,TGI,SK-OV-3 ovarian,3340 nM
same,GI50,TK-10 renal,1850 nM
same,TGI,TK-10 renal,3390 nM
C=C(C)[C@@H]1CC[C@]2(CO)CC[C@]3(C)[C@H](CC[C@@H]4[C@@](C)(CCCN)[C@H](C(=C)C)CC[C@]43C)[C@@H]12,GI50,A498 renal,1740 nM
same,TGI,A498 renal,3150 nM
same,GI50,A549 NSCLC,1730 nM
same,TGI,A549 NSCLC,3430 nM
same,GI50,ACHN renal,1820 nM
same,TGI,ACHN renal,3210 nM
same,GI50,CAKI-1 renal,1790 nM
same,TGI,CAKI-1 renal,3210 nM
same,GI50,CCRF-CEM leukemia,1840 nM
same,TGI,CCRF-CEM leukemia,4760 nM
same,GI50,COLO 205 colon,1630 nM
same,TGI,COLO 205 colon,3340 nM
same,GI50,DU-145 prostate,1680 nM
same,TGI,DU-145 prostate,3060 nM
same,GI50,HCC-2998 colon,1790 nM
same,TGI,HCC-2998 colon,3300 nM
same,GI50,HCT-116 colon,1400 nM
same,TGI,HCT-116 colon,3020 nM
same,GI50,HL-60(TB) leukemia,1780 nM
same,TGI,HL-60(TB) leukemia,3610 nM
same,GI50,HOP-92 NSCLC,1380 nM
same,TGI,HOP-92 NSCLC,2820 nM
same,GI50,HT29 colon,1580 nM
same,TGI,HT29 colon,3770 nM
same,GI50,IGROV1 ovarian,1760 nM
same,TGI,IGROV1 ovarian,3220 nM
same,GI50,K-562 leukemia,1550 nM
same,TGI,K-562 leukemia,4590 nM
same,GI50,KM12 colon,1580 nM
same,TGI,KM12 colon,3060 nM
same,GI50,MDA-MB-231 breast,1750 nM
same,TGI,MDA-MB-231 breast,3190 nM
same,GI50,MDA-MB-435,1720 nM
same,TGI,MDA-MB-435,3160 nM
same,GI50,NCI-H460 lung,1650 nM
same,TGI,NCI-H460 lung,3240 nM
same,GI50,OVCAR-3 ovarian,1590 nM
same,TGI,OVCAR-3 ovarian,2960 nM
same,GI50,OVCAR-5 ovarian,1680 nM
same,TGI,OVCAR-5 ovarian,3040 nM
same,GI50,PC-3 prostate,1550 nM
same,TGI,PC-3 prostate,3090 nM
same,GI50,RPMI-8226 leukemia,1460 nM
same,TGI,RPMI-8226 leukemia,3990 nM
same,GI50,SF-268 CNS,1530 nM
same,TGI,SF-268 CNS,3060 nM
same,GI50,SF-539 CNS,1630 nM
same,TGI,SF-539 CNS,2990 nM
same,GI50,SK-MEL-28 melanoma,1750 nM
same,TGI,SK-MEL-28 melanoma,3140 nM
same,GI50,SK-OV-3 ovarian,1710 nM
same,TGI,SK-OV-3 ovarian,3180 nM
same,GI50,SN12C renal,1390 nM
same,TGI,SN12C renal,2750 nM
same,GI50,SNB-75 CNS,1480 nM
same,TGI,SNB-75 CNS,2820 nM
same,GI50,SR leukemia,475 nM
same,TGI,SR leukemia,2140 nM
same,GI50,SW-620 colon,1750 nM
same,TGI,SW-620 colon,3510 nM
same,GI50,TK-10 renal,1770 nM
same,TGI,TK-10 renal,3390 nM
same,GI50,UACC-62 melanoma,1710 nM
same,TGI,UACC-62 melanoma,3090 nM
same,GI50,UO-31 renal,1310 nM
same,TGI,UO-31 renal,2580 nM
